Laboratory results as given in PMC7079008, “Compactness of Protein Folds Alters Disulfide‐Bond Reducibility by Three Orders of Magnitude: A Comprehensive Kinetic Case Study on the Reduction of Differently Sized Tryptophan Cage Model Proteins” (Chembiochem, 2019).
Where a SMILES comes first, the peptide text is derived from it. Bridges are numbered along the chain shown (N, C = ends).

Assay: Complete redox cycle after DTT reduction: reoxidation by dissolved O2 and precipitation, 1H NMR
Type: physicochemical
Details: twofold excess of DTT, pH 7, 15 °C, sealed NMR tube
Description: Incomplete conversion, despite the presence of a large excess of the RA, provided evidence for the reoxidation of the reduced SS bond of the studied model systems. To study this process in detail, the in situ reoxidation of the DTT‐reduced protein samples at […] in sealed NMR tubes (pH 7, 15 °C, twofold excess of DTT) was monitored for several weeks.
Figure 8 The 50‐membered structure ensembles of A) E11_SS⇄E11_2SH and B) E5_SS⇄E5_2SH. The fold of E11_2SH is more compact than that of E5_2SH, which has more “open” conformers, in which the Cys residues are far from each other. This allows intermolecular, rather than intramolecular, reoxidation. The dissolved oxidized and reduced protein concentrations of C) E11_SS⇄E11_2 SH and D) E5_SS⇄E5_2SH (oxidized: blue; reduced: green) as a function of time. […] E) Estimated parameters of the complete redox cycles. […] Figure S11 contains all data for parameter estimation of E11_SS, E5_SS, and E2_SS. […]
Reoxidation can take place both intra‐ and intermolecularly. […] According to our semiquantitative analysis based on the recorded ^1H NMR spectra, the integral changes of the Trp Hϵ1 resonances both in the oxidized and reduced forms of the protein during reduction with DTT show a decrease in concentration over the observed period of redox time for both E2_SS and E5_SS. […]

| decrease of the initial dissolved protein concentration at the end of a complete redox cycle | Compound |
| --- | --- |
| 68% | CC[C@H](C)[C@@H]1NC(=O)[C@H](Cc2ccc(O)cc2)NC(=O)[C@H](CC(C)C)NC(=O)[C@H](CCCNC(=N)N)NC(=O)[C@H](C(C)C)NC(=O)[C@@H](NC(=O)[C@H](CCC(=O)O)NC(=O)[C@H](CCC(=O)O)NC(=O)[C@@H](N)CCC(=O)O)CSSC[C@@H](C(=O)O)NC(=O)[C@@H]2CCCN2C(=O)[C@@H]2CCCN2C(=O)[C@@H]2CCCN2C(=O)[C@H](CCCNC(=N)N)NC(=O)CNC(=O)[C@H](CO)NC(=O)[C@H](CO)NC(=O)[C@@H]2CCCN2C(=O)CNC(=O)CNC(=O)[C@H](CC(=O)O)NC(=O)[C@H](CCCCN)NC(=O)[C@H](CC(C)C)NC(=O)[C@H](Cc2c[nH]c3ccccc23)NC(=O)[C@H](CCC(N)=O)NC1=O [E5_SS] (H-EEECVRLYIQWLKDGGPSSGRPPPC-OH; disulfide 4-25) |
| remained the same | CC[C@H](C)[C@@H]1NC(=O)[C@H](Cc2ccc(O)cc2)NC(=O)[C@H](CC(C)C)NC(=O)[C@H](CCCNC(=N)N)NC(=O)[C@H](C(C)C)NC(=O)[C@@H](NC(=O)[C@H](CCC(=O)O)NC(=O)[C@H](CCC(=O)O)NC(=O)[C@H](CCC(=O)O)NC(=O)[C@H](CCSC)NC(=O)[C@H](CCC(N)=O)NC(=O)[C@H](CCCCN)NC(=O)[C@H](CO)NC(=O)[C@H](CC(C)C)NC(=O)[C@@H](N)CC(=O)O)CSSC[C@@H](C(=O)O)NC(=O)[C@@H]2CCCN2C(=O)[C@@H]2CCCN2C(=O)[C@@H]2CCCN2C(=O)[C@H](CCCNC(=N)N)NC(=O)CNC(=O)[C@H](CO)NC(=O)[C@H](CO)NC(=O)[C@@H]2CCCN2C(=O)CNC(=O)CNC(=O)[C@H](CC(=O)O)NC(=O)[C@H](CCCCN)NC(=O)[C@H](CC(C)C)NC(=O)[C@H](Cc2c[nH]c3ccccc23)NC(=O)[C@H](CCC(N)=O)NC1=O [E11_SS] (H-DLSKQMEEECVRLYIQWLKDGGPSSGRPPPC-OH; disulfide 10-31) |
